Reference: patent US7425557B2, “Inhibitors of glycogen synthase kinase 3” (Novartis Vaccines and Diagnostics, Inc., priority 1998, dated 2008)
pIC50: −log10 of the molar value.

Key:
human GSK3β = human GSK3β (Homo sapiens, UniProt P49841); assay: Screening for GSK3 inhibitory activity using a cell-free assay; type: biochemical; conditions: read-out: IC50 with respect to GSK3
How it was run: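 Radiometric cell-free assay with recombinant human GSK3β phosphorylating a biotinylated peptide substrate for 3 h. Reactions were stopped with 50 μM ATP/20 mM EDTA and captured on streptavidin plates. Incorporated radiolabel was counted by scintillation and plotted against compound concentration.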

Chain of human GSK3β (P49841 whole entry): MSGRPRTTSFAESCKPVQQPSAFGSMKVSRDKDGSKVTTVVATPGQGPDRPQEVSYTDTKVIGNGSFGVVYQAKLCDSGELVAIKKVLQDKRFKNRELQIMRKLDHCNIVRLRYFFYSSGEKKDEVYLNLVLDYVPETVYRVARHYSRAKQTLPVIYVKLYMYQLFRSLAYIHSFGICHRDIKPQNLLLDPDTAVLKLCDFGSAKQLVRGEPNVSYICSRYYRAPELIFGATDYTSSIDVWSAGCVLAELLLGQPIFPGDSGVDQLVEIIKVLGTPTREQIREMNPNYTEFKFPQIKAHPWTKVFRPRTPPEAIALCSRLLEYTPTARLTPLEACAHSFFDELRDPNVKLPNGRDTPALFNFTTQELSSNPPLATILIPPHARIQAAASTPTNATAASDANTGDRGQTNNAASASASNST

SMILES | pIC50 (human GSK3β) | melting point
O=[N+]([O-])c1ccc(NCCNc2nccc(-c3ccc(N4CCOCC4)cc3)n2)nc1 [[4-(4-morpholin-4-ylphenyl)-pyrimidin-2-yl]{2-[(5-nitro(2-pyridyl))amino]ethyl}amine] | ≥ 6.00 | 223 to 225 °C (dec.)
c1ccc(NCCNc2nccc(-c3cccnc3)n2)nc1 [[2-(2-pyridylamino)ethyl](4-(3-pyridyl)pyrimidin-2-yl)amine] | ≥ 5.00 | –
CCOC(=O)c1cnc(NCCNc2ccc([N+](=O)[O-])cn2)nc1-c1ccc(Br)cc1 [ethyl 4-(4-bromophenyl)-2-({2-[(5-nitro(2-pyridyl))amino]ethyl}amino)pyrimidine-5-carboxylate] | ≥ 6.00 | –
CCOC(=O)c1cnc(NCCNc2ccc([N+](=O)[O-])c(N)n2)nc1-c1ccc(N2CCOCC2)cc1 [ethyl 2-({2-[(6-amino-5-nitro(2-pyridyl))amino]-ethyl}amino)-4-(4-morpholin-4-ylphenyl)pyrimidine-5-carboxylate] | ≥ 6.00 | –
O=C(NCC1CCCO1)c1ccc(-c2ccnc(NCCNc3ccc([N+](=O)[O-])cn3)n2)cc1 (stereo not drawn) [{4-[2-({2-[(5-nitro(2-pyridyl))amino]ethyl}amino)pyrimidin-4-yl]phenyl}-N-(oxolan-2-ylmethyl)carboxamide] | ≥ 5.00 | –
N#Cc1ccc(NCCNc2nccc(-c3ccc(C(N)=O)cc3)n2)nc1 [4-[2-({2-[(5-cyano-2-pyridyl)amino]-ethyl}amino)pyrimidin-4-yl]benzamide] | ≥ 6.00 | –
COCCNC(=O)c1ccc(-c2ccnc(NCCNc3ccc([N+](=O)[O-])cn3)n2)cc1 [N-(2-methoxyethyl){4-[2-({2-[(5-nitro(2-pyridyl))amino]ethyl}amino)pyrimidin-4-yl]phenyl}carboxamide] | ≥ 5.00 | –
Cc1c[nH]c(-c2cnc(NCCNc3ccc([N+](=O)[O-])c(N)n3)nc2-c2ccc(Br)cc2Cl)n1 [{2-[(6-amino-5-nitro(2-pyridyl))amino]ethyl}[4-(4-bromo-2-chlorophenyl)-5-(4-methylimidazol-2-yl)pyrimidin-2-yl]amine] | ≥ 6.00 | –
c1ccc(-c2ccnc(NCCc3ccccn3)n2)cc1 [(4-phenylpyrimidin-2-yl)(2-(2-pyridyl)ethyl)amine] | ≥ 5.00 | –
O=C(O)c1c(-c2ccc([N+](=O)[O-])cc2)nc(NCCNc2ccc([N+](=O)[O-])cn2)nc1-c1ccc(C(F)(F)F)cc1 [2-({2-[(5-nitro(2-pyridyl))amino]ethyl}amino)-6-(4-nitrophenyl)-4-[4-(trifluoromethyl)phenyl]pyrimidine-5-carboxylic acid] | ≥ 5.00 | –
CCOC(=O)c1cnc(NCCNc2ccc([N+](=O)[O-])cn2)nc1-c1ccc2ccccc2c1 [ethyl 4-(2-naphthyl)-2-({2-[(5-nitro(2-pyridyl))amino]-ethyl}amino)pyrimidine-5-carboxylate] | ≥ 6.00 | –
CCOC(=O)c1cnc(NCCNc2ccc([N+](=O)[O-])cn2)nc1NCc1cccc(Br)c1 [ethyl 4-{[(3-bromophenyl)methyl]amino}-2-({2-[(5-nitro(2-pyridyl))amino]ethyl}amino)pyrimidine-5-carboxylate] | ≥ 5.00 | –
N#Cc1cnc(NCCNc2nccc(-c3ccc(C(=O)NCc4cccc(Br)c4)cc3)n2)nc1N [{4-[2-({2-[(4-amino-5-cyanopyrimidin-2-yl)amino]ethyl}amino)pyrimidin-4-yl]phenyl}-N-[(3-bromophenyl)methyl]carboxamide] | ≥ 6.00 | –
CCOC(=O)c1cnc(NCCNc2ccc([N+](=O)[O-])cn2)nc1-c1ccc(SC)cc1 [ethyl 4-(4-methylthiophenyl)-2-({2-[(5-nitro(2-pyridyl))amino]ethyl}amino)pyrimidine-5-carboxylate] | ≥ 6.00 | –
O=[N+]([O-])c1ccc(NCCNc2ncc(CN3CCOCC3)c(-c3ccc(Cl)cc3Cl)n2)nc1 [[4-(2,4-dichlorophenyl)-5-(morpholin-4-ylmethyl)pyrimidin-2-yl]{2-[(5-nitro(2-pyridyl))amino]ethyl}amine] | ≥ 6.00 | –
NC(=O)c1ccc(-c2ccnc(NCCCNc3ccc([N+](=O)[O-])cn3)n2)cc1 [4-[2-({3-[(5-nitro-2-pyridyl)amino]propyl}amino)pyrimidin-4-yl]benzamide] | ≥ 6.00 | –
N#Cc1ccc(NCCNc2ncc(-c3ncc[nH]3)c(-c3ccc(F)cc3Cl)n2)nc1 [6-[(2-{[4-(2-chloro-4-fluorophenyl)-5-imidazol-2-ylpyrimidin-2-yl]amino}ethyl)amino]pyridine-3-carbonitrile] | ≥ 6.00 | –
